Species on record: Rattus norvegicus
Test: Open TG-GATES - Regimen: Single
Format: toxicity, organism-based, Sprague-Dawley
Parameters: regimen Single, gender Male, age 6 weeks
Details: in vivo, po, route gavage; for APTT / Bas / Eos / Fbg / Hb / Ht / Lym / MCH / MCHC / MCV / Mono / Neu / Plat / RBC / Ret / WBC: tissue Blood; for KIDNEY_L / KIDNEY_R / KIDNEY_TOTAL: tissue Kidney; for LIVER: tissue Liver; for ALP / ALT / AST / CRE / DBIL / GLC / IP / K / LDH / Na / PL / RALB / TBIL / TC / TG / TP / gamma-GTP: tissue Plasma
[1] = 100 mg/kg, 24 h, dose level Low
[2] = 300 mg/kg, 3 h, dose level Middle
[3] = 300 mg/kg, 6 h, dose level Middle
[4] = 300 mg/kg, 9 h, dose level Middle
[5] = 300 mg/kg, 24 h, dose level Middle

## CN(C)CCC=C1c2ccccc2COc2ccccc21 [DOXEPIN]
100 mg/kg, 9 h, dose level Low
  TERMINAL_BW: 193.4 g
  APTT: 24.3 s
  Bas: 0%
  Eos: 0.8%
  Fbg: 284.4 mg/dL
  Hb: 13.5 g/dL
  Ht: 40.9%
  Lym: 80.4%
  MCH: 21.9 pg
  MCHC: 32.9%
  MCV: 66.5 fL
  Mono: 2.4%
  Neu: 16%
  Plat: 117.4 x10_4/uL
  RBC: 614.6 x10_4/ul
  Ret: 8.5%
  WBC: 81.6 x10_2/uL
  KIDNEY_L: 0.9 g
  KIDNEY_R: 0.9 g
  KIDNEY_TOTAL: 1.8 g
  LIVER: 7.7 g
  ALP: 1637.2 IU/L
  ALT: 33.8 IU/L
  AST: 69.4 IU/L
  CRE: 0.2 mg/dL
  DBIL: 0.002 mg/dL
  GLC: 167 mg/dL
  IP: 10.4 mg/dL
  K: 4 meq/L
  LDH: 99.6 IU/L
  Na: 144.8 meq/L
  PL: 135 mg/dL
  RALB: 2.5 g/dL
  TBIL: 0.062 mg/dL
  TC: 72.6 mg/dL
  TG: 26.6 mg/dL
  TP: 5.3 g/dL
  gamma-GTP: 1 IU/L
[1]
  TERMINAL_BW: 208.9 g
  APTT: 17.3 s
  Bas: 0%
  Eos: 0.8%
  Fbg: 264.6 mg/dL
  Hb: 14 g/dL
  Ht: 41.3%
  Lym: 78.2%
  MCH: 21.9 pg
  MCHC: 34%
  MCV: 64.4 fL
  Mono: 2.6%
  Neu: 17.4%
  Plat: 125.2 x10_4/uL
  RBC: 641.6 x10_4/ul
  Ret: 7.3%
  WBC: 97.7 x10_2/uL
  KIDNEY_L: 0.9 g
  KIDNEY_R: 0.9 g
  KIDNEY_TOTAL: 1.8 g
  ALP: 2097.8 IU/L
  ALT: 45 IU/L
  AST: 75.8 IU/L
  CRE: 0.2 mg/dL
  DBIL: 0.006 mg/dL
  GLC: 176.4 mg/dL
  IP: 7.5 mg/dL
  K: 4 meq/L
  LDH: 112.6 IU/L
  Na: 142 meq/L
  PL: 155.8 mg/dL
  RALB: 2.6 g/dL
  TBIL: 0.04 mg/dL
  TC: 80.4 mg/dL
  TG: 101 mg/dL
  TP: 5.6 g/dL
  gamma-GTP: 1 IU/L
[2]
  TERMINAL_BW: 198.6 g
  APTT: 17.8 s
  Bas: 0.2%
  Eos: 0.4%
  Fbg: 275.2 mg/dL
  Hb: 12.9 g/dL
  Ht: 40%
  Lym: 73%
  MCH: 21.7 pg
  MCHC: 32.1%
  MCV: 67.4 fL
  Mono: 3.2%
  Neu: 22.4%
  Plat: 112.8 x10_4/uL
  RBC: 593.6 x10_4/ul
  Ret: 10%
  WBC: 63.7 x10_2/uL
  KIDNEY_L: 0.9 g
  KIDNEY_R: 0.9 g
  KIDNEY_TOTAL: 1.8 g
  LIVER: 9 g
  ALP: 1422.6 IU/L
  ALT: 48 IU/L
  AST: 76.6 IU/L
  CRE: 0.1 mg/dL
  DBIL: 0.002 mg/dL
  GLC: 187.4 mg/dL
  IP: 10 mg/dL
  K: 3.9 meq/L
  LDH: 71.2 IU/L
  Na: 145.6 meq/L
  PL: 147.6 mg/dL
  RALB: 2.4 g/dL
  TBIL: 0.044 mg/dL
  TC: 78.6 mg/dL
  TG: 64.6 mg/dL
  TP: 5.3 g/dL
  gamma-GTP: 1.2 IU/L
[3]
  TERMINAL_BW: 194.4 g
  APTT: 17.3 s
  Bas: 0.2%
  Eos: 0.8%
  Fbg: 290 mg/dL
  Hb: 12.9 g/dL
  Ht: 40%
  Lym: 74.2%
  MCH: 21.3 pg
  MCHC: 32.4%
  MCV: 66 fL
  Mono: 3%
  Neu: 21%
  Plat: 126.3 x10_4/uL
  RBC: 605.6 x10_4/ul
  Ret: 9.5%
  WBC: 84.5 x10_2/uL
  KIDNEY_L: 0.9 g
  KIDNEY_R: 0.9 g
  KIDNEY_TOTAL: 1.8 g
  LIVER: 7.8 g
  ALP: 1630.2 IU/L
  ALT: 42.2 IU/L
  AST: 83.2 IU/L
  CRE: 0.1 mg/dL
  DBIL: 0 mg/dL
  GLC: 185 mg/dL
  IP: 11.1 mg/dL
  K: 3.7 meq/L
  LDH: 85.2 IU/L
  Na: 146.2 meq/L
  PL: 141.6 mg/dL
  RALB: 2.5 g/dL
  TBIL: 0.054 mg/dL
  TC: 82.6 mg/dL
  TG: 11.2 mg/dL
  TP: 5.4 g/dL
  gamma-GTP: 1.4 IU/L
[4]
  TERMINAL_BW: 192.2 g
  APTT: 17.8 s
  Bas: 0%
  Eos: 1%
  Fbg: 275 mg/dL
  Hb: 13.2 g/dL
  Ht: 39.9%
  Lym: 77.6%
  MCH: 21.9 pg
  MCHC: 33%
  MCV: 66.4 fL
  Mono: 2.6%
  Neu: 18.4%
  Plat: 130.9 x10_4/uL
  RBC: 603.6 x10_4/ul
  Ret: 9.4%
  WBC: 76.7 x10_2/uL
  KIDNEY_L: 0.9 g
  KIDNEY_R: 0.9 g
  KIDNEY_TOTAL: 1.7 g
  LIVER: 7.6 g
  ALP: 1517.4 IU/L
  ALT: 38.2 IU/L
  AST: 64.8 IU/L
  CRE: 0.1 mg/dL
  DBIL: 0.002 mg/dL
  GLC: 184 mg/dL
  IP: 10.4 mg/dL
  K: 3.9 meq/L
  LDH: 74.2 IU/L
  Na: 145.2 meq/L
  PL: 142 mg/dL
  RALB: 2.5 g/dL
  TBIL: 0.06 mg/dL
  TC: 79.2 mg/dL
  TG: 12.2 mg/dL
  TP: 5.5 g/dL
  gamma-GTP: 1 IU/L
[5]
  TERMINAL_BW: 185.6 g
  APTT: 16.9 s
  Bas: 0%
  Eos: 0.8%
  Fbg: 277.2 mg/dL
  Hb: 14.8 g/dL
  Ht: 43.9%
  Lym: 81.2%
  MCH: 22 pg
  MCHC: 33.8%
  MCV: 65.2 fL
  Mono: 2.2%
  Neu: 15.6%
  Plat: 130.7 x10_4/uL
  RBC: 672.8 x10_4/ul
  Ret: 7.4%
  WBC: 65.5 x10_2/uL
  KIDNEY_L: 0.9 g
  KIDNEY_R: 0.9 g
  KIDNEY_TOTAL: 1.8 g
  LIVER: 7.3 g
  ALP: 1482.6 IU/L
  ALT: 31.8 IU/L
  AST: 59 IU/L
  CRE: 0.2 mg/dL
  DBIL: 0 mg/dL
  GLC: 173.2 mg/dL
  IP: 9.1 mg/dL
  K: 4.1 meq/L
  LDH: 87 IU/L
  Na: 144.6 meq/L
  PL: 131.8 mg/dL
  RALB: 2.6 g/dL
  TBIL: 0.046 mg/dL
  TC: 74.4 mg/dL
  TG: 30.6 mg/dL
  TP: 5.7 g/dL
  gamma-GTP: 1 IU/L
